Results taken from ChEMBL document CHEMBL1140105, “Synthesis of bivalent beta2-adrenergic and adenosine A1 receptor ligands” (J Med Chem, 2008).
The source made the active and inactive calls. The calls are words filed in the database; no cut-off is given here.

Assays:
[1] = Displacement of [3H]DPCPX from adenosine A1 receptor in Syrian hamster DDT1 MF2 cells; assay type: cell-based, Mesocricetus auratus
[2] = biological target: T1, Beta-2 adrenergic receptor (Mesocricetus auratus, UniProt P04274); test: Displacement of [125I](-)-iodopindolol from adrenergic beta2 receptor in Syrian hamster DDT1 MF2 cells; assay type: cell-based
[3] = biological target: Beta-2 adrenergic receptor (Mesocricetus auratus) (UniProt P04274); test: Displacement of [125I](-)-iodopindolol from adrenergic beta2 receptor in Syrian hamster DDT1 MF2 cells at 10 uM; assay type: cell-based
[4] = biological target: Beta-2 adrenergic receptor (Mesocricetus auratus) (UniProt P04274); test: Agonist activity at adrenergic beta2 receptor in Syrian hamster DDT1 MF2 cells assessed as stimulation of cAMP accumulation up to 100 uM by radioimmunoassay in presence of 1 uM DPCPX; assay type: functional, cell-based
[5] = biological target: Beta-2 adrenergic receptor (Mesocricetus auratus) (UniProt P04274); test: Agonist activity at adrenergic beta2 receptor in Syrian hamster DDT1 MF2 cells assessed as stimulation of cAMP accumulation by radioimmunoassay in presence of 1 uM DPCPX relative to (-)-isoproterenol; assay type: functional, cell-based
[6] = biological target: T1, Beta-2 adrenergic receptor; test: Agonist activity at adrenergic beta2 receptor in Syrian hamster DDT1 MF2 cells assessed as stimulation of cAMP accumulation by radioimmunoassay in presence of 1 uM DPCPX; assay type: functional, cell-based

Sequence of Beta-2 adrenergic receptor (Mesocricetus auratus) (P04274 whole entry, looked up): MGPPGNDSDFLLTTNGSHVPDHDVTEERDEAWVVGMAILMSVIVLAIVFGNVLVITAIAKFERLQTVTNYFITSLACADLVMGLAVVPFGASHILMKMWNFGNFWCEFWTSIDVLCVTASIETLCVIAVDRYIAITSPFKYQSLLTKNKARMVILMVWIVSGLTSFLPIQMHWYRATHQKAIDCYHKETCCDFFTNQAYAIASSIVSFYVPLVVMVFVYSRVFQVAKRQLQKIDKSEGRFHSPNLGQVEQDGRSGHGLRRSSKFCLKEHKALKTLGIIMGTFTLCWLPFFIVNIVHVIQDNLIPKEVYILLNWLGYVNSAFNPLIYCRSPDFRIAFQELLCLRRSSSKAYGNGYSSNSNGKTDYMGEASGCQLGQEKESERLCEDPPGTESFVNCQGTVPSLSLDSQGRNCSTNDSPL
T1 sequence (P04274 whole entry): as the sequence (P04274 whole entry, looked up) above

SMILES | Ki [1] [nM] | Ki [2] [nM] | inhibition [3] [%] | Activity [4] | Activity [5] [%] | EC50 [6] [nM]
Nc1cc(C(O)CNCCNc2ncnc3c2ncn3[C@@H]2O[C@H](CO)[C@@H](O)[C@H]2O)ccc1O (stereo not given in full) | 2750 | > 10000 | 20 | inactive | 50 | 
O=CNc1cc(C(O)CNCCNc2ncnc3c2ncn3[C@@H]2O[C@H](CO)[C@@H](O)[C@H]2O)ccc1O (stereo not given in full) | 1980 | > 10000 | 20 | inactive |  | 
Nc1cc(C(O)CNCCCCNc2ncnc3c2ncn3[C@@H]2O[C@H](CO)[C@@H](O)[C@H]2O)ccc1O (stereo not given in full) |  |  |  |  |  | 1090
